Measured values: ChEMBL document CHEMBL5463729, “Data for DCP probe BAY 1753011” (2023)

Experiments:
Details in all cases: Compound concentration 10.0 uM
[1] = target: T1, cGMP-dependent protein kinase 1 (Homo sapiens) (UniProt Q13976); assay: Inhibition of PKG1alpha(h) at 10.0 µM in the Eurofins Kinase panel
T1 sequence (whole entry): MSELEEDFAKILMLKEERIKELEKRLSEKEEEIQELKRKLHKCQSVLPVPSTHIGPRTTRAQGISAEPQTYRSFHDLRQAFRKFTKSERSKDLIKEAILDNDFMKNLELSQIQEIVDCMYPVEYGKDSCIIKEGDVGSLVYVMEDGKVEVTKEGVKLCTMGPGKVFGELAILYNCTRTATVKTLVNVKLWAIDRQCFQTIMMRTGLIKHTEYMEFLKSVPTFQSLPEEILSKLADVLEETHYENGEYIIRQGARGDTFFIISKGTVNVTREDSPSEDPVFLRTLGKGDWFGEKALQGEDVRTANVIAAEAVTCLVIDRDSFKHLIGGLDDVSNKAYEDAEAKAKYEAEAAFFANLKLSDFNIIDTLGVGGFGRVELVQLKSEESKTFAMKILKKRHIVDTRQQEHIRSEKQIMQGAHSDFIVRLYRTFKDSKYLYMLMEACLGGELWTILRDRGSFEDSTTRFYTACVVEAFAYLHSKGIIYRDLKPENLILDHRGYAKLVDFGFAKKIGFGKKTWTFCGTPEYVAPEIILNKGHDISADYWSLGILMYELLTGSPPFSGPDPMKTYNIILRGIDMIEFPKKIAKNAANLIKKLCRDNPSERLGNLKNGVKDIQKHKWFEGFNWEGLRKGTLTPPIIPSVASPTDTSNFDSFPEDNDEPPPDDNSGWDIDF

[2] = target: Serine/threonine-protein kinase MARK2 (Homo sapiens) (UniProt Q7KZI7); assay: Inhibition of PAR-1Balpha(h) at 10.0 µM in the Eurofins Kinase panel
[3] = target: Serine/threonine-protein kinase PAK 4 (Homo sapiens) (UniProt O96013); assay: Inhibition of PAK4(h) at 10.0 µM in the Eurofins Kinase panel
[4] = target: Adenosine receptor A3 (Homo sapiens) (UniProt P0DMS8)
Adenosine receptor A3 (Homo sapiens), sequence (P0DMS8 whole entry): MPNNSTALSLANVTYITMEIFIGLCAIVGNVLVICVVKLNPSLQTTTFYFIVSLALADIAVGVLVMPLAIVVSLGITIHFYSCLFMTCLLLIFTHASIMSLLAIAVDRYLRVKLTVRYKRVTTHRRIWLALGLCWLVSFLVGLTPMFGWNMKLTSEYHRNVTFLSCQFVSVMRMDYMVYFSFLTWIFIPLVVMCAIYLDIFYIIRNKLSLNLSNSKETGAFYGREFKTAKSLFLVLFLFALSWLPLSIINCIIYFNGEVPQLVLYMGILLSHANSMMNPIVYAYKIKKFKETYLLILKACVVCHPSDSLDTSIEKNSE

[5] = target: Serine/threonine-protein kinase Nek11 (Homo sapiens) (UniProt Q8NG66); assay: Inhibition of NEK11(h) at 10.0 µM in the Eurofins Kinase panel
[6] = target: Serine/threonine-protein kinase DCLK1 (Homo sapiens) (UniProt O15075); assay: Inhibition of DCAMKL1(h) at 10.0 µM in the Eurofins Kinase panel
[7] = target: Receptor-interacting serine/threonine-protein kinase 2 (Homo sapiens) (UniProt O43353); assay: Inhibition of RIPK2(h) at 10.0 µM in the Eurofins Kinase panel
[8] = target: Mitogen-activated protein kinase kinase kinase 3 (Homo sapiens) (UniProt Q99759); assay: Inhibition of MEKK3(h) at 10.0 µM in the Eurofins Kinase panel
Mitogen-activated protein kinase kinase kinase 3 (Homo sapiens), sequence (Q99759 whole entry): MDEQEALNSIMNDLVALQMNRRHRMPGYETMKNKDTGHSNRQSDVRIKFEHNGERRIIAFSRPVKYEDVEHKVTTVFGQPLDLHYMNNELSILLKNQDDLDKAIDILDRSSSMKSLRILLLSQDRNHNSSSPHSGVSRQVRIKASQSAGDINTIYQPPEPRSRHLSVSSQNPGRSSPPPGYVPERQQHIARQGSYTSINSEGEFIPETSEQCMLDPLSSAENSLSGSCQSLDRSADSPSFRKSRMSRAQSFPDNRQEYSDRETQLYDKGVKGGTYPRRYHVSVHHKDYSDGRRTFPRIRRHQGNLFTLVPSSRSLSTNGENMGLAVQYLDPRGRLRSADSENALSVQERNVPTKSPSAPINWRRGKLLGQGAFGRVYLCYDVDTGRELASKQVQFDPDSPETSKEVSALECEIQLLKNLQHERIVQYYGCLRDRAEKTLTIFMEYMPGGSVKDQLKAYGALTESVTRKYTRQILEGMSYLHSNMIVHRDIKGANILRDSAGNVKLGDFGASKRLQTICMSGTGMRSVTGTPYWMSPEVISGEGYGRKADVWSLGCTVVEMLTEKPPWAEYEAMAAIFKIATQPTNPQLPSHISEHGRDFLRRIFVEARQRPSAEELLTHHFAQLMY

[9] = target: Proto-oncogene tyrosine-protein kinase Src (Homo sapiens) (UniProt P12931); assay: Inhibition of cSRC(h) at 10.0 µM in the Eurofins Kinase panel
[10] = target: Serine/threonine-protein kinase 3 (Homo sapiens) (UniProt Q13188); assay: Inhibition of MST2(h) at 10.0 µM in the Eurofins Kinase panel
[11] = target: Protein kinase C beta type (Homo sapiens) (UniProt P05771); assay: Inhibition of PKCbetaI(h) at 10.0 µM in the Eurofins Kinase panel
Protein kinase C beta type (Homo sapiens), sequence (P05771 2-671 limits assumed): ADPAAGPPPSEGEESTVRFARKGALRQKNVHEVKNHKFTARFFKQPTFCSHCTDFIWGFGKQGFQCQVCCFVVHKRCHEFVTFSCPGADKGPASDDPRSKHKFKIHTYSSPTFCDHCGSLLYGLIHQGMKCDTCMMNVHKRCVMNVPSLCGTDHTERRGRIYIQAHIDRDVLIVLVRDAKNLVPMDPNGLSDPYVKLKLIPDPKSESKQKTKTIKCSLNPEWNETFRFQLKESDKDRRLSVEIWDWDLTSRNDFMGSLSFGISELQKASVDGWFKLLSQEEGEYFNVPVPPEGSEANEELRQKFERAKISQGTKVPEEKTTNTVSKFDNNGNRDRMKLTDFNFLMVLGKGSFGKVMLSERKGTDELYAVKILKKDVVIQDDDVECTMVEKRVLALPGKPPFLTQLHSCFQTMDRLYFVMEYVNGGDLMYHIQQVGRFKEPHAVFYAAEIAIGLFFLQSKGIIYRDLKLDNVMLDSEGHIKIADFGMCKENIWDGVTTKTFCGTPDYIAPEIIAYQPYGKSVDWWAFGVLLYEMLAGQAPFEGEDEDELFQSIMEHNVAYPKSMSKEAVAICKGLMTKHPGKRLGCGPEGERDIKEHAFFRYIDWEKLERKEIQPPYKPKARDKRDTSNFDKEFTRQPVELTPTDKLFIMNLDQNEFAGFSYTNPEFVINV

[12] = target: Fibroblast growth factor receptor 1 (Homo sapiens) (UniProt P11362); assay: Inhibition of FGFR1(h) at 10.0 µM in the Eurofins Kinase panel
[13] = target: Casein kinase I isoform gamma-3 (Homo sapiens) (UniProt Q9Y6M4); assay: Inhibition of CK1gamma3(h) at 10.0 µM in the Eurofins Kinase panel
Casein kinase I isoform gamma-3 (Homo sapiens), sequence (Q9Y6M4 whole entry, looked up, canonical isoform): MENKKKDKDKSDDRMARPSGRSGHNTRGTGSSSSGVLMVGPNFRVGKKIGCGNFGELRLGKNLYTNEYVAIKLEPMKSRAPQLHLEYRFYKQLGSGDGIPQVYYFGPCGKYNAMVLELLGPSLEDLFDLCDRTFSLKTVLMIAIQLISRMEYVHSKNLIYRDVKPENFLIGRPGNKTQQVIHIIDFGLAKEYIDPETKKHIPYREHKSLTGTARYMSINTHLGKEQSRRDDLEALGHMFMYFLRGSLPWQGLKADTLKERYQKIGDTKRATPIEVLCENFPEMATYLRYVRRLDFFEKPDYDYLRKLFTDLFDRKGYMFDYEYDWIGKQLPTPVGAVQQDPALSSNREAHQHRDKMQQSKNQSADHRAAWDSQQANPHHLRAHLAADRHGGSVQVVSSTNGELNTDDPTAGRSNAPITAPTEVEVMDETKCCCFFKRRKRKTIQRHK

[14] = target: Receptor-interacting serine/threonine-protein kinase 1 (Homo sapiens) (UniProt Q13546); assay: Inhibition of RIPK1(h) at 10.0 µM in the Eurofins Kinase panel
Receptor-interacting serine/threonine-protein kinase 1 (Homo sapiens), sequence (Q13546 whole entry): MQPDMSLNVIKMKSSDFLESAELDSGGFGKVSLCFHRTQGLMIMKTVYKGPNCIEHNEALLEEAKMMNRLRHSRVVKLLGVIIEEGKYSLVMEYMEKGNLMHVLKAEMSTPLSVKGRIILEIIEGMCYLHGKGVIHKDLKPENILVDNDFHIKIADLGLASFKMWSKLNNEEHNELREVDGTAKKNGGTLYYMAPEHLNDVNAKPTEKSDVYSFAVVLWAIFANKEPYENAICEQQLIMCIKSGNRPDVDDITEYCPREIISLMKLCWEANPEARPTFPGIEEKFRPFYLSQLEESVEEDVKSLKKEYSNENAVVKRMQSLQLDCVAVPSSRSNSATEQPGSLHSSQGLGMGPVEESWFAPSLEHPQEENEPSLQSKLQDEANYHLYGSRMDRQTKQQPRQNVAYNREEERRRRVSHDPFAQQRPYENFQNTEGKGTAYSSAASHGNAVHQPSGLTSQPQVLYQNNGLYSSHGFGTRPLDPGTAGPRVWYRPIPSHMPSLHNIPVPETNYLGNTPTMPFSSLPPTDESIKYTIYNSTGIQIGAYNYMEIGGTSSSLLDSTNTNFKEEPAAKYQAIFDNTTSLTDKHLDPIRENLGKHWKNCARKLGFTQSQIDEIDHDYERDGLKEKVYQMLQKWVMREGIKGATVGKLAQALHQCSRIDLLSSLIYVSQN

[15] = target: T2, Muscarinic acetylcholine receptor M5 (Homo sapiens) (UniProt P08912)
T2 sequence (whole entry): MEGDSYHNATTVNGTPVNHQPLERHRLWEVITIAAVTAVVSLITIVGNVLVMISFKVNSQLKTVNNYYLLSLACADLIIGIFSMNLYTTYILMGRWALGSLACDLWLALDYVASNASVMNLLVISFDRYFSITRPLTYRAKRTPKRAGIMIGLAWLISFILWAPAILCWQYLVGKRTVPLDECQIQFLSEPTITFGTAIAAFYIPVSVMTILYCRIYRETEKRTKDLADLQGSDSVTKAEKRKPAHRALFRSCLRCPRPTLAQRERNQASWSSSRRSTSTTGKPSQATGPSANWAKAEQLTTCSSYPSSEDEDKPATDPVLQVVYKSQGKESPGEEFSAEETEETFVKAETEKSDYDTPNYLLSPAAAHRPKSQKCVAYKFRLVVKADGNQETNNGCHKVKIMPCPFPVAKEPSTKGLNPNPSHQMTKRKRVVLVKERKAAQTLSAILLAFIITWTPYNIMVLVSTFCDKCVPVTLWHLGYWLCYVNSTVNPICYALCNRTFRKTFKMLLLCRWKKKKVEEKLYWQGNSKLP

[16] = target: Protein kinase C gamma type (Homo sapiens) (UniProt P05129); assay: Inhibition of PKCgamma(h) at 10.0 µM in the Eurofins Kinase panel
[17] = target: Ephrin type-A receptor 2 (Homo sapiens) (UniProt P29317); assay: Inhibition of EphA2(h) at 10.0 µM in the Eurofins Kinase panel
Ephrin type-A receptor 2 (Homo sapiens), sequence (P29317 whole entry): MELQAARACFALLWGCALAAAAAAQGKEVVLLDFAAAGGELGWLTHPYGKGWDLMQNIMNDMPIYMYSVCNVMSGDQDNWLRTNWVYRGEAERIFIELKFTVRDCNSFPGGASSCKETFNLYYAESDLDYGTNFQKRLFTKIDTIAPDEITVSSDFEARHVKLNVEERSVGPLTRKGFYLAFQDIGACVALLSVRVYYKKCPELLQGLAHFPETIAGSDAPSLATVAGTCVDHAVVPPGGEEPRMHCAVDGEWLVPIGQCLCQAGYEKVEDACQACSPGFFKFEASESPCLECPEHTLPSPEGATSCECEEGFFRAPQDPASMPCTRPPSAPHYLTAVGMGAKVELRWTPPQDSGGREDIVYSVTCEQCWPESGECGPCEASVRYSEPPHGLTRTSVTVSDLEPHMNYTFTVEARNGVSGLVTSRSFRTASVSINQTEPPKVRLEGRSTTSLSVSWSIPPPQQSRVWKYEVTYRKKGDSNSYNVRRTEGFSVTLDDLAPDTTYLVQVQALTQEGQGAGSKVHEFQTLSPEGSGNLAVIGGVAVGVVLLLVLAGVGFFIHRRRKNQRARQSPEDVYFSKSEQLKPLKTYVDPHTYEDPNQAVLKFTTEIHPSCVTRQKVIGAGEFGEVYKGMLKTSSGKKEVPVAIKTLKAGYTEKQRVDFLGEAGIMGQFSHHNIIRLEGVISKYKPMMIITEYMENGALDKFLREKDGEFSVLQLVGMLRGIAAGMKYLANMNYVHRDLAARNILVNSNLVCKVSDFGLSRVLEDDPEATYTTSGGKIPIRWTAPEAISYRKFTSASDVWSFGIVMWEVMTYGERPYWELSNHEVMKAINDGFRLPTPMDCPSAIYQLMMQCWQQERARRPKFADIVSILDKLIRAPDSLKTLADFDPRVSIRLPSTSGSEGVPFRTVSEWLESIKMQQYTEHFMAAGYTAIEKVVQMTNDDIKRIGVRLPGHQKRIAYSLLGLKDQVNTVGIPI

[18] = target: Protein kinase C beta type (Homo sapiens) (UniProt P05771); assay: Inhibition of PKCbetaII(h) at 10.0 µM in the Eurofins Kinase panel
[19] = target: Serine/threonine-protein kinase SBK1 (Homo sapiens) (UniProt Q52WX2); assay: Inhibition of SBK1(h) at 10.0 µM in the Eurofins Kinase panel
[20] = target: GABA-A receptor; anion channel (Rattus norvegicus) (UniProt O09028+P15431+P18506+P18508+P19969+P20236+P23574+P23576+P28471+P28473+P30191+P62813+P63079+P63138+Q91ZM7+Q9ES14)
[21] = target: 3-phosphoinositide-dependent protein kinase 1 (Homo sapiens) (UniProt O15530); assay: Inhibition of PDK1(h) at 10.0 µM in the Eurofins Kinase panel
3-phosphoinositide-dependent protein kinase 1 (Homo sapiens), sequence (O15530 whole entry, looked up): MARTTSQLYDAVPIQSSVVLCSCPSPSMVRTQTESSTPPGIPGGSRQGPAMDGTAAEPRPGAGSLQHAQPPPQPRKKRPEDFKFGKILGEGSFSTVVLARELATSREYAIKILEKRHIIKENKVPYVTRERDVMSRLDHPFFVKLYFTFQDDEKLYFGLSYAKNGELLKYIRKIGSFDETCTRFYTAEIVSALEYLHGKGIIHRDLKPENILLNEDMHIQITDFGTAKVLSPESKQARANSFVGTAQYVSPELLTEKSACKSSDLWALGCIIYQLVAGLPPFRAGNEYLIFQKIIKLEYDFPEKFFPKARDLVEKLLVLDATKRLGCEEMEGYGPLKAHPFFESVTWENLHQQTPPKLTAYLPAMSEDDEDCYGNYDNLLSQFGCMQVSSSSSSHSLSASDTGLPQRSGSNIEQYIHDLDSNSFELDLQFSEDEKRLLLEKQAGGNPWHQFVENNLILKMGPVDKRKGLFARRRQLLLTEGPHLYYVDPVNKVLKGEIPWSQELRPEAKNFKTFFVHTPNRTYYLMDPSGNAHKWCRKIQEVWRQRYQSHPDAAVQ

[22] = target: Serine/threonine-protein kinase 4 (Homo sapiens) (UniProt Q13043); assay: Inhibition of MST1(h) at 10.0 µM in the Eurofins Kinase panel
Serine/threonine-protein kinase 4 (Homo sapiens), sequence (Q13043 whole entry): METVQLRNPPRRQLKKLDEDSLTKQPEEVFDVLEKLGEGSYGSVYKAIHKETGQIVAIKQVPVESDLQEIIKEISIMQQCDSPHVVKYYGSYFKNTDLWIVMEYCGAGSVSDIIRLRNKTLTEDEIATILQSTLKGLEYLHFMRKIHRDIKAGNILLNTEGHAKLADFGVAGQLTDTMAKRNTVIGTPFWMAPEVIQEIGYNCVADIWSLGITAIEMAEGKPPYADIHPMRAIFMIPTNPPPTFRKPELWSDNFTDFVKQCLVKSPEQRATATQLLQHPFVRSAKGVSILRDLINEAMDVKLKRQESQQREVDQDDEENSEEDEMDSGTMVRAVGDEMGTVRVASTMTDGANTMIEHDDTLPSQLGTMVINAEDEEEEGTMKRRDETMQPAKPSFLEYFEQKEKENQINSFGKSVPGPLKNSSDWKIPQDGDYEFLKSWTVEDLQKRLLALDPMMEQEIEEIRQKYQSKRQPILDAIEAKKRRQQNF

[23] = target: Androgen receptor (Homo sapiens) (UniProt P10275)
[24] = target: Non-receptor tyrosine-protein kinase TYK2 (Homo sapiens) (UniProt P29597); assay: Inhibition of TYK2(h) at 10.0 µM in the Eurofins Kinase panel

SMILES	inhibition [1] [%]	inhibition [2] [%]	inhibition [3] [%]	inhibition [4] [%]	inhibition [5] [%]	inhibition [6] [%]	inhibition [7] [%]	inhibition [8] [%]	inhibition [9] [%]	inhibition [10] [%]	inhibition [11] [%]	inhibition [12] [%]	inhibition [13] [%]	inhibition [14] [%]	inhibition [15] [%]	inhibition [16] [%]	inhibition [17] [%]	inhibition [18] [%]	inhibition [19] [%]	inhibition [20] [%]	further results
O=c1n(Cc2cncn2-c2cccc(Cl)c2)nc(-c2ccc(Cl)cc2)n1C[C@H](O)C(F)(F)F	-0.21	5.49	-2.41	7	15.8	-2.6	-2.28	7.5	0.88	-1.52	1	-0.06	-8.47	2.04	-5.11	-1.26	-5.2	4.87	0.97	12	inhibition [21]: -8.39%; inhibition [22]: 2.53%; inhibition [23]: 9%; inhibition [24]: 5.83%
C[C@H](O)c1nc(Cn2nc(-c3ccc(Cl)cc3)n(C[C@H](O)C(F)(F)F)c2=O)nn1-c1cccc(Cl)c1 [PECAVAPTAN]	-5.35	7.5	-1.84	16	16.2	-1.32	-1.02	2.27	-5.76	-2.77	2.79	1.76	-8.75	0.69	-1.8	3.24	-2	2.9	-2.61	30	inhibition [21]: -3.55%; inhibition [22]: 9.3%; inhibition [23]: 12%; inhibition [24]: 8.75%
